According to paper PMC11420944, “Targeted Degradation of Protein Kinase A via a Stapled Peptide PROTAC” (ACS Chemical Biology, 2024):

Experiments:
[1] = tested on: phospho serine/threonine PKA substrate; test: PKA substrate phosphorylation in forskolin-stimulated cells, Western blot; format: cell-based; settings: MDA-MB-231 cells, 50 µM H89 added 30 min before 50 µM forskolin (30 min); n = 3
Method: (§1) Next, we sought to assess whether StIP-TAC could also downregulate PKAc signaling in cells. For this experiment, cells were treated with forskolin to stimulate PKAc activity. Cells were either treated with DMSO, the small molecule PKAc inhibitor H89, StIP-TAC alone, or StIP-TAC with SAINT protein (Figure 4; Figure S7). […] (Figure 4C,D). A known PKA substrate, vasodilator-stimulated phosphoprotein (VASP),[42] was also probed for PKA-mediated phosphorylation (Figure S8).
Cell-based PROTAC activity assays. MDA-MB-231 cells were grown on 6-well tissue culture plates (BD Biosciences). Cells were serum-starved for 24 hours in serum-free RPMI with penicillin/streptomycin, glucose, and L-glutamine. StIP-TAC treatment was prepared with SAINT-Protein reagent according to manufacturer protocol (Synvolux) and added to cells at a final concentration of 10 µM for 5 hours. For phosphorylation studies, cells were additionally stimulated with 50 µM forskolin for 30 minutes before harvesting. For H89-treated cells, 50 μM H89 was added 30 minutes before stimulation […]
with forskolin. […]
Cells were harvested in Laemmli sample buffer, boiled for 10 minutes and protein levels were analyzed via western blotting. For control experiments, cells were incubated for 5 hours with an equivalent volume of DMSO or SAINT-Protein to the above studies, with or without forskolin stimulation.
To assess PKA degradation, anti-PKAc (1:1000, BD Biosciences) and anti-GAPDH (1:1000, Proteintech) primary antibodies were used. To assess PKA substrate phosphorylation, anti-phospho serine/threonine PKA substrate (1:1000, Cell Signaling […]
Incubation with primary antibodies was followed by incubation with anti-mouse […]
Biosciences). Western blot fluorescence detection was performed using a LI-COR Odyssey Fc imaging system. Data analysis was performed using GraphPad Prism […]
Figure S7: Western blots for PKA substrate phosphorylation. Experiments were performed in triplicate (n=3) in low passage number MDA-MB-231 cells (ATCC HTB-26). Following t = 24 hour starvation in serum-free RPMI media, cells were treated for t = 5 hours with DMSO, SAINT-Protein Lipid reagent alone, 10 µM StIP-TAC, or 10 µM StIP-TAC incubated with SAINT-Protein Lipid reagent per manufacturer instructions. For forskolin-stimulated treatments, cells were incubated for 30 minutes with 50 µM forskolin […]
prior to harvesting in Laemmli sample buffer. For H89-inhibited treatments, cells were incubated for 30 minutes prior to forskolin stimulation with 50 µM H89. Lysates were run via SDS-PAGE and Western blotting performed anti-phospho serine/threonine PKA substrate (1:1000, Cell Signaling Technology) and anti-tubulin (1:1000, Cell Signaling Technology) primary antibodies.

phospho VASP = test: VASP phosphorylation in forskolin-stimulated cells, Western blot; format: cell-based; settings: MDA-MB-231 cells, 50 µM H89 added 30 min before 50 µM forskolin (30 min); n = 3
Method: as §1
Cell-based PROTAC activity assays. MDA-MB-231 cells were grown on 6-well tissue culture plates (BD Biosciences). Cells were serum-starved for 24 hours in serum-free RPMI with penicillin/streptomycin, glucose, and L-glutamine. StIP-TAC treatment was prepared with SAINT-Protein reagent according to manufacturer protocol (Synvolux) and added to cells at a final concentration of 10 µM for 5 hours. For phosphorylation studies, cells were additionally stimulated with 50 µM forskolin for 30 minutes before harvesting. For H89-treated cells, 50 μM H89 was added 30 minutes before stimulation with forskolin. For degradation studies, cells were co-treated with 10 μM MG-132 (Selleck Chemicals) alongside StIP-TAC and DMSO treatments for the duration of the 5-hour experiment. […] Cells were harvested in Laemmli sample buffer, boiled for 10 minutes and protein levels were analyzed via western blotting. […]
Biosciences). Western blot fluorescence detection was performed using a LI-COR Odyssey Fc imaging system. […]
Table S1. Peptide and PROTAC sequences, expected and observed masses determined via HPLC-MS. […]
Figure S8: StIP-TAC inhibits phosphorylation of the PKA substrate VASP. […] (B) Densitometric quantification of Western blots […]
reduction in phosphorylated VASP in cells treated with H89 and StIP-TAC with SAINT Protein reagent. Quantification was performed via Li-COR Image Studio. **p=0.010; ***p<0.001; ns, not significant as assessed by one-way ANOVA and Bonferroni’s multiple comparisons test. […]

[2] = molecular target: recombinant human DNAJB1-PKAc (Homo sapiens, UniProt P17612+P25685); test: Fluorescence polarization direct binding of fluorescein-labeled peptides; settings: FP, N-terminally FAM-labeled peptide 0.5 nM, DNAJ-PKA-C 3 µM to 30 pM, 20 mM MOPS pH 7, 150 mM NaCl, 0.005% CHAPS, 1 mM ATP, 10 mM MgCl2, room temperature, mean and SD of three independent measurements
Method: To determine the binding affinity of the truncated library toward the catalytic subunit of PKA, fluorescence polarization (FP) experiments were performed using N-terminally fluorescein-labeled PKI-derived peptides incubated with a range of concentrations of recombinant human DNAJB1-PKAc (Figure 2). The DNAJB1-PKAc chimera is a clinically relevant protein identified in fibrolamellar hepatocellular carcinoma (FL-HCC) patients that combines the chaperonin-binding domain of heat-shock protein 40 (HSP40/DNAJ) with the catalytic (c) subunit of PKA.[34] The active site of the DNAJB1-PKAc protein is identical to native PKAc and retains inhibition by PKI with a nearly identical binding conformation.[35] […] To generate the StIP-TAC, several PEG linker lengths were conjugated with the thalidomide-derived Cereblon Ligand 1 and preliminarily tested (PEG3 to PEG9; Figure S2). All PEG lengths appeared to yield compound activity, and thus the PEG8 linker was chosen to provide greater flexibility to the overall compound. […]
Fluorescence Polarization (FP) Assay. Binding studies for the truncated peptide library to DNAJ-PKA-C were performed according to protocols described previously 21.
FAM-labeled peptides were plated to a final concentration of 0.5 nM after the addition of protein in 384-well microtiter plates. A tenfold dilution series of DNAJ-PKA-C were mixed in peptide wells to have 6 final concentrations ranging from 3 µM to 30 pM.
Assays were performed using FP buffer (20 mM MOPS pH 7, 150 mM NaCl, 0.005% CHAPS, 1 mM ATP, 10 mM MgCl2) at room temperature. All data were obtained using a BioTek Synergy 2 microplate reader using the following settings: excitation/emission/dichroic filters: 485-20 nm/528-20 nm/510 nm, 50 flashes per well, settling time 0.1 s. Non-linear regression (sigmoidal dose-response) was performed using GraphPad Prism 6.01 on FP signals plotted against log-scale protein concentrations to determine equilibrium dissociation constants (KD). Data analysis was performed using GraphPad Prism (Dotmatics). […]

Compound	total PKA substrate phosphorylation [1]	phosphorylated VASP (phospho VASP)	Kd [2] [nM]	Kd ([2]; SD) [nM]
O=S(=O)(NCCNC/C=C/c1ccc(Br)cc1)c1cccc2cnccc12 [H89, reference compound]	statistically significant reduction	statistically significant reduction	–	–
CC[C@H](C)[C@H](NC(=O)[C@H](C)NC(=O)[C@H](CC(N)=O)NC(=O)[C@H](CCCNC(=N)N)NC(=O)[C@H](CCCNC(=N)N)NC(=O)CNC(=O)[C@@H](NC(=O)[C@H](CCCNC(=N)N)NC(=O)CNC(=O)[C@H](CO)NC(=O)[C@H](C)NC(=O)[C@@H](NC(=O)[C@H](Cc1ccccc1)NC(=O)[C@H](CC(=O)O)NC(=O)[C@]1(C)CCCC=CCCC[C@](C)(NC(=O)COCCOCCOCCNC(=O)c2ccc3c(c2)C(=O)OC32c3ccc(O)cc3Oc3cc(O)ccc32)C(=O)N[C@@H]([C@@H](C)O)C(=O)N[C@@H]([C@@H](C)O)C(=O)N[C@@H](Cc2ccc(O)cc2)C(=O)N1)[C@@H](C)CC)[C@@H](C)O)C(N)=O [StIP-3]	–	–	3 to 4	3.5 ± 0.1
CC[C@H](C)[C@H](NC(=O)[C@H](C)NC(=O)[C@H](CC(N)=O)NC(=O)[C@H](CCCNC(=N)N)NC(=O)[C@H](CCCNC(=N)N)NC(=O)CNC(=O)[C@@H](NC(=O)[C@H](CCCNC(=N)N)NC(=O)CNC(=O)[C@H](CO)NC(=O)[C@H](C)NC(=O)[C@@H](NC(=O)[C@H](Cc1ccccc1)NC(=O)[C@H](CC(=O)O)NC(=O)[C@]1(C)CCCC=CCCC[C@](C)(NC(=O)[C@@H](NC(=O)[C@H](CC(=O)O)NC(=O)[C@@H](NC(=O)COCCOCCOCCNC(=O)c2ccc3c(c2)C(=O)OC32c3ccc(O)cc3Oc3cc(O)ccc32)[C@@H](C)O)C(C)C)C(=O)N[C@@H]([C@@H](C)O)C(=O)N[C@@H]([C@@H](C)O)C(=O)N[C@@H](Cc2ccc(O)cc2)C(=O)N1)[C@@H](C)CC)[C@@H](C)O)C(N)=O [StIP-4]	–	–	3 to 4	3.2 ± 0.1
